Laboratory results from ChEMBL document CHEMBL4184292, “Synthetic strigolactone analogues reveal anti-cancer activities on hepatocellular carcinoma cells” (Bioorg Med Chem Lett, 2018).
Active and inactive are the calls of the source. No cut-off for these calls is given here.

Experiments:
HepG2 [1] = assay: Cytotoxicity against human HepG2 cells assessed as reduction in cell viability after 24 hrs by WST1 assay; format: functional, cell-based; settings: for IC50: HepG2, 24 h
HepG2 [2] = assay: Cytotoxicity against human HepG2 cells assessed as reduction in cell viability at 80 uM after 24 hrs by WST1 assay relative to control; format: functional
HepG2 [3] = assay: Cytotoxicity against human HepG2 cells assessed as reduction in cell viability at 40 uM after 24 hrs by WST1 assay; format: functional, cell-based
Jurkat = assay: Cytotoxicity against human Jurkat cells assessed as reduction in cell viability after 24 hrs by WST1 assay; format: functional, cell-based
HepG2 [4] = assay: Antimigratory activity in human HepG2 cells at 80 uM after 24 hrs by wound-scratch assay; format: functional, cell-based
HepG2 [5] = assay: Induction of apoptosis in human HepG2 cells assessed as early apoptotic cells at 20 uM after 24 hrs by Annexin-V/7AAD staining based flow cytometry (reference value: 5.1 to 12.5 %); format: functional
HepG2 [6] = assay: Induction of apoptosis in human HepG2 cells assessed as late apoptotic cells at 20 uM after 24 hrs by Annexin-V/7AAD staining based flow cytometry (reference value: 0.2 to 0.4%); format: functional
HepG2 [7] = assay: Induction of apoptosis in human HepG2 cells assessed as late apoptotic cells at 60 uM after 24 hrs by Annexin-V/7AAD staining based flow cytometry (reference value: 0.2 to 0.4%); format: functional
HepG2 [8] = assay: Induction of apoptosis in human HepG2 cells assessed as late apoptotic cells at 80 uM after 6 hrs by Annexin-V/7AAD staining based flow cytometry (reference value: 0.2 to 0.7 %); format: functional
HepG2 [9] = assay: Induction of apoptosis in human HepG2 cells assessed as late apoptotic cells at 80 uM after 2 hrs by Annexin-V/7AAD staining based flow cytometry (reference value: 0.2 to 0.7 %); format: functional
HepG2 [10] = assay: Cytotoxicity against human HepG2 cells assessed as reduction in cell viability at 80 uM after 4 hrs by WST1 assay relative to control; format: functional
HepG2 [11] = assay: Induction of apoptosis in human HepG2 cells assessed as early apoptotic cells at 80 uM after 6 hrs by Annexin-V/7AAD staining based flow cytometry (reference value: 3.8 to 4.2 %); format: functional
HepG2 [12] = assay: Induction of apoptosis in human HepG2 cells assessed as early apoptotic cells at 80 uM after 2 hrs by Annexin-V/7AAD staining based flow cytometry (reference value: 3.8 to 4.2 %); format: functional
PC-3 = assay: Cytotoxicity against human PC3 cells assessed as reduction in cell viability after 24 hrs by WST1 assay; format: functional, cell-based; settings: for IC50: PC-3, 24 h
HepG2 [13] = assay: Induction of apoptosis in human HepG2 cells assessed as late apoptotic cells at 40 uM after 24 hrs by Annexin-V/7AAD staining based flow cytometry (reference value: 0.2 to 0.4%); format: functional
HepG2 [14] = assay: Cytotoxicity against human HepG2 cells assessed as reduction in cell viability at 80 uM after 8 hrs by WST1 assay relative to control; format: functional
HepG2 [15] = assay: Cytotoxicity against human HepG2 cells assessed as reduction in cell viability at 80 uM after 12 hrs by WST1 assay relative to control; format: functional
HepG2 [16] = assay: Cytotoxicity against human HepG2 cells assessed as reduction in cell viability at 80 uM by WST1 assay; format: functional, cell-based; settings: TDE = time-dependent effect
[17] = Cytotoxicity against BHK cells assessed as reduction in cell viability at 80 uM after 48 hrs by WST1 assay relative to control; format: cell-based, Mesocricetus auratus; settings: hamster
HepG2 [18] = assay: Induction of apoptosis in human HepG2 cells assessed as early apoptotic cells at 60 uM after 24 hrs by Annexin-V/7AAD staining based flow cytometry (reference value: 5.1 to 12.5 %); format: functional
HepG2 [19] = assay: Induction of apoptosis in human HepG2 cells assessed as early apoptotic cells at 40 uM after 24 hrs by Annexin-V/7AAD staining based flow cytometry (reference value: 5.1 to 12.5 %); format: functional
HepG2 [20] = assay: Induction of apoptosis in human HepG2 cells assessed as late apoptotic cells at 80 uM after 24 hrs by Annexin-V/7AAD staining based flow cytometry (reference value: 0.2 to 0.4%); format: functional
HepG2 [21] = assay: Induction of apoptosis in human HepG2 cells assessed as early apoptotic cells at 80 uM after 24 hrs by Annexin-V/7AAD staining based flow cytometry (reference value: 5.1 to 12.5 %); format: functional
HepG2 [22] = assay: Antimigratory activity in human HepG2 cells at 100 uM after 24 hrs by wound-scratch assay; format: functional, cell-based
HepG2 [23] = assay: Growth inhibition of human HepG2 cells at 100 uM after 24 hrs; format: functional, cell-based

Compound `CC1=CC(Oc2ccc(F)cc2Br)OC1=O` (stereo not drawn) has an IC50 (HepG2 [1]) of 90.3 µM and an Activity (HepG2 [2]) of 39%.

In the case of `CC1=CC(Oc2c(Br)cccc2C#N)OC1=O` (stereo not drawn), the IC50 (HepG2 [1]) is reported as 87.6 µM and the Activity (HepG2 [2]) is reported as 43.8%.

With `CC1=CC(Oc2ccc(Cl)c(Cl)c2)OC1=O` (stereo not drawn) the Activity (HepG2 [3]) was “Active”, the IC50 (HepG2 [1]) was 85.9 µM and the Activity (HepG2 [2]) was 43.5%.

For `COC(=O)/C(=C/OC1C=C(C)C(=O)O1)c1ccccc1` (stereo not drawn), the Activity (Jurkat) was “Dose-dependent effect”, the IC50 (Jurkat) was 46.4 µM and the Activity (HepG2 [4]) was “Active”. It also gave an Activity (HepG2 [5]) of 9.5%, an Activity (HepG2 [6]) of 0.2% and an Activity (HepG2 [7]) of 0.4%. It also gave an Activity (HepG2 [8]) of 1.2%, an Activity (HepG2 [9]) of 1.7% and an Activity (HepG2 [10]) of 13%. For the same compound, the Activity (HepG2 [11]) was 13.3%, the Activity (HepG2 [12]) was 3.8% and the Activity (PC-3) was “Dose-dependent effect”. It also gave an IC50 (PC-3) of 55.1 µM, an Activity (HepG2 [13]) of 0.2% and an Activity (HepG2 [14]) of 20%. The Activity (HepG2 [15]) was 31%, the Activity (HepG2 [16]) was “Tde” and the Activity [17] was 18%. For the same compound, the Activity (HepG2 [18]) was 18.5%, the Activity (HepG2 [1]) was “Dose-dependent effect” and the IC50 (HepG2 [1]) was 63.5 µM. It also gave an Activity (HepG2 [19]) of 13.1%, an Activity (HepG2 [20]) of 0.2% and an Activity (HepG2 [21]) of 26.6%. For the same compound, the Activity (HepG2 [2]) was 63.4 - 73%.

For `COC(=O)/C(=C/OC1C=C(C)C(=O)O1)c1ccc(OC)cc1` (stereo not drawn), the Activity (HepG2 [3]) was “Active”, the Activity [17] was 33% and the IC50 (HepG2 [1]) was 82.1 µM. The Activity (HepG2 [2]) was 50.1%.

For `CC1=CC(Oc2cc(Cl)cc(Cl)c2)OC1=O` (stereo not drawn), the IC50 (HepG2 [1]) was 89.5 µM and the Activity (HepG2 [2]) was 40.7%.

With `CC1=CC(=O)C(C(C)C)=CC1=O` [THYMOQUINONE] the Activity (HepG2 [22]) was “Active”, the “growth inhibition (GI)” value (HepG2 [23]) was “Active” and the Activity (HepG2 [20]) was 3.3%. It also gave an Activity (HepG2 [21]) of 91.8%.

With `COC(=O)/C(=C/OC1C=C(C)C(=O)O1)c1ccc(Cl)cc1` (stereo not drawn) the Activity (Jurkat) was “Dose-dependent effect”, the IC50 (Jurkat) was 44.7 µM and the Activity (HepG2 [4]) was “Active”. The Activity (HepG2 [5]) was 9.5%, the Activity (HepG2 [6]) was 0.2% and the Activity (HepG2 [7]) was 0.5%. The Activity (HepG2 [8]) was 1.5%, the Activity (HepG2 [9]) was 0.9% and the Activity (HepG2 [10]) was 11%. For the same compound, the Activity (HepG2 [11]) was 13.7%, the Activity (HepG2 [3]) was “Active” and the Activity (HepG2 [12]) was 4.3%. For the same compound, the Activity (PC-3) was “Dose-dependent effect”, the IC50 (PC-3) was 56.6 µM and the Activity (HepG2 [13]) was 0.4%. The Activity (HepG2 [14]) was 19%, the Activity (HepG2 [15]) was 26% and the Activity (HepG2 [16]) was “Tde”. The Activity [17] was 23%, the Activity (HepG2 [18]) was 16.1% and the Activity (HepG2 [1]) was “Dose-dependent effect”. The IC50 (HepG2 [1]) was 67.8 µM, the Activity (HepG2 [19]) was 11.3% and the Activity (HepG2 [20]) was 0.5%. The Activity (HepG2 [21]) was 20.9% and the Activity (HepG2 [2]) was 61 - 61.4%.
